Reference: the NIST ThermoML archive (doi:10.1021/je900759f)

Test: molar heat capacity at constant pressure
Details: 101.33 kPa, Crystal, Vacuum adiabatic calorimetry

O=C([O-])c1ccccc1C(=O)O.[K+] [potassium 2-carboxybenzoate]
Details | molar heat capacity at constant pressure [J/K/mol]
78.74 K | 81.22
81.08 K | 82.76
83.42 K | 85
85.62 K | 86.29
88.11 K | 88.06
90.01 K | 90.07
92.06 K | 91.25
94.25 K | 92.66
96.3 K | 94.19
98.21 K | 95.73
100.26 K | 97.26
102.01 K | 98.56
104.21 K | 100.09
105.82 K | 101.39
107.72 K | 102.68
109.48 K | 103.75
111.23 K | 104.92
112.99 K | 106.1
114.45 K | 107.52
116.5 K | 108.7
118.55 K | 109.99
120.9 K | 111.65
122.65 K | 112.71
126.02 K | 114.95
128.9 K | 117.28
131.81 K | 119.26
134.65 K | 120.84
137.63 K | 123.15
140.07 K | 124.62
143.44 K | 126.5
146.3 K | 128.75
149.29 K | 130.28
152.07 K | 132.04
155.1 K | 134.02
158.03 K | 135.88
161.04 K | 137.98
163.86 K | 139.4
166.86 K | 141.12
169.72 K | 142.95
172.65 K | 144.78
175.6 K | 146.73
178.52 K | 148.14
181.46 K | 150.06
185.51 K | 152.18
189.58 K | 154.71
192.49 K | 156.69
195.39 K | 157.97
198.33 K | 160.11
201.39 K | 161.41
204.34 K | 163.34
207.27 K | 164.59
210.19 K | 166.59
213.12 K | 168.36
216.13 K | 169.91
219.11 K | 171.34
222.05 K | 173.08
224.97 K | 174.49
228.05 K | 176.26
230.83 K | 177.91
233.76 K | 178.97
236.83 K | 180.98
239.77 K | 182.23
243.54 K | 184.12
247.46 K | 186.25
250.44 K | 188.14
253.42 K | 189.68
256.45 K | 190.76
259.37 K | 192.3
262.36 K | 193.82
265.34 K | 195.71
268.16 K | 196.89
271.14 K | 198.67
274.12 K | 200.21
277.08 K | 201.26
280.08 K | 203.28
283.06 K | 204.58
286.04 K | 205.65
289.09 K | 207.51
292.02 K | 208.57
294.94 K | 210.1
298.02 K | 211.04
300.8 K | 213.17
303.87 K | 214.11
306.8 K | 215.52
309.73 K | 216.94
312.51 K | 218.12
315.58 K | 219.65
318.36 K | 221.3
321.29 K | 222.01
324.37 K | 223.43
327.29 K | 224.96
330.37 K | 226.61
333.44 K | 228.14
336.37 K | 229.67
339.3 K | 230.85
342.37 K | 232.15
345.3 K | 233.33
348.37 K | 234.39
351.3 K | 236.4
354.23 K | 237.46
357.16 K | 239.23
360.08 K | 240.52
363.01 K | 241.35
365.94 K | 243
368.87 K | 243.71
371.83 K | 244.81
374.87 K | 246.77
377.94 K | 248.3
380.93 K | 249.42
383.91 K | 250.96
386.89 K | 252.02
390.03 K | 253.44
393.01 K | 254.98
395.98 K | 255.93
